Source: patent US11578071B2, “Preparation of pyrazolo[3,4-B]pyridines as antimalarials” (University of Kentucky Research Foundation, priority 2019, dated 2023)

How the values were obtained:
[1] = test system: erythrocytes infected with the 3D7 strain; assay: FACS Killing Rate Assay; format: cell-based, Plasmodium falciparum; design: % Survival at 0 h: concentration or dose not given beside the values; details: for % Survival (24 h) / % Survival (48 h) / % Survival at 0 h: 3D7; for % Survival (24 h): 24 h treatment at 10× IC50; for % Survival (24 h) / % Survival (48 h): mean ± SD of two measurements; for % Survival (48 h): 48 h treatment at 10× IC50; for % Survival at 0 h: treatment time 0 h; for killing profile: in words, compared with chloroquine, pyrimethamine, atovaquone, artesunate
Method: After treatment, the compound is removed and the culture is diluted (⅓^rd dilution) using fresh erythrocytes (2% hematocrit) previously labeled with CFDA-SE (carboxylfluorescein diacetate succinimidyl ester, Life Technologies). […] Samples were analyzed using the Attune N×T software package.

[2] = test system: P. falciparum 3D7 gametocytes; assay: Gametocyte EC50 determination; format: cell-based; details: Plasmodium falciparum
Method: Asexual cultures of P. falciparum 3D7 parasites were used to seed gametocyte cultures at 1% parasitemia and 4% hematocrit as previously described. Culture medium (RPMI medium with 25 mM HEPES, 50 mg/L hypoxanthine, 2 g/L sodium bicarbonate and 10% human serum) was replaced daily for at least 14 day with all solutions, pipettes and work surfaces treated at 37° C. Typical cultures follow the pattern of asexual parasitemia rising to a peak and crashing at days 4-5, with stage II gametocytes visible at day 7, stage III visible at day 9, stage IV visible at day 11, and stage V visible at day 14 with high levels of exflagellation.
To determine EC50 values, the number of exflagellation centers per field, mean oocyst intensity and prevalence of infection were normalized to the respective DMSO treated control and % inhibition calculated. Tested compounds were prepared as a DMSO solutions from 25 μM to 0.026 μM across 22 points. Percentage inhibition data obtained from each individual parameter was fitted to a four-parameter logistic equation with variable slope using GraphPad Prism 6.07 for which compound concentrations were first transformed to their respective log10 values. The data were then fitted using these transformed values without defining constraints.

[3] = test system: P. berghei luciferase sporozoites in HepG2-A16-CD81EGFP cells; assay: Plasmodium Berghei Luciferase Liver Stage Bioluminescence Assay; format: cell-based; details: in words
Method: HepG2-A16-CD81EGFP cells which were stably transformed to express a GFP-CD81 fusion protein were cultured at 37° C. and 5% CO2 in DMEM supplemented with 10% FBS, 0.29 mg/mL glutamine, 100 units penicillin and 100 μg/mL of streptomycin (Invitrogen, Carlsbad, USA). […] Freshly dissected P. berghei luciferase sporozoites were re-suspended in media and their concentration adjusted to 200 sporozoites/μL. […] After incubation, the plates were assessed by testing the luciferase expression. This was done by removing the media by spinning the inverted plates at 150 g for 1 minute. 2 μL of BrightGlo (Promega) was dispensed with the MicroFlo liquid handler (BioTek) into the emptied 1536 wells. The plates were held for at least 2 minutes with the Bright-Glo reagent in the wells (per manufacturer instructions) for the process to occur. The plates were then loaded and read by an EnVision Multilabel plate reader (PerkinElmer) using a luminescence protocol. IC50 values were obtained using measured bioluminescence intensity and a non-linear variable slope protocol in CDD Vault, an online collaborative drug discovery informatics program.

HepG2-A16-CD81EGFP cells = assay: HepG2 Cytotoxicity Bioluminescence Assay; format: cell-based; details: Homo sapiens, 48 h, mean ± SD of two measurements
Method: HepG2-A16-CD81EGFP cells which were stably transformed to express a GFP-CD81 fusion protein were cultured at 37° C. and 5% CO2 in DMEM supplemented with 10% FBS, 0.29 mg/mL glutamine, 100 units penicillin and 100 μg/mL of streptomycin (Invitrogen, Carlsbad, USA). […] 50 nL of compound in DMSO (0.5% final DMSO concentration per well) was transferred with an Acoustic Transfer System (Biosero) in to the assay plates (50 μM final concentration). […] To maintain similar conditions, the 5 μL additional volume was accomplished by using the same screening media with no infected sporozoites. No centrifugation was performed using only the media addition. […] The HepG2 cytotoxicity was assessed to determine the number of viable cells in culture based on quantitation of the ATP present, which signals the presence of metabolically active cells. […] Immediately after the addition of the CellTiterGlo, the plates were read by an EnVision Multilabel plate reader (PerkinElmer) using a luminescence protocol. IC50 values were obtained using measured bioluminescence intensity and a non-linear variable slope protocol in CDD Vault, an online collaborative drug discovery informatics program.

Row | Compound | % Survival at 0 h [1] [%] | melting point [°C] | further results
1 | CCc1nc(N)nc(N)c1-c1ccc(Cl)cc1 [Pyrimethamine] | 100 | – | % Survival (24 h) [1]: 56.37 ± 2.55%; % Survival (48 h) [1]: 16.02 ± 4.36%
2 | CCc1ccc(-c2nc3c(c(C)nn3-c3ccccc3)c(-c3ccccc3OC(F)(F)F)c2C#N)cc1 [Compound 17, 6-(4-Ethylphenyl)-3-methyl-1-phenyl-4-[2-(trifluoromethoxy)phenyl]-1H-pyrazolo[3,4-b]pyridine-5-carbonitrile] | – | – | EC50 [2]: > 25 µM; potency against the liver stage of the parasite [3]: sub-micromolar potency; EC50 (HepG2-A16-CD81EGFP cells): > 25 µM
3 | Cc1nn(-c2ccccc2)c2nc(-c3ccc([N+](=O)[O-])cc3)c(C#N)c(-c3ccccc3O)c12 [Compound 35, 4-(2-hydroxyphenyl)-3-methyl-6-(4-nitrophenyl)-1-phenyl-1H-pyrazolo[3,4-b]pyridine-5-carbonitrile] | – | 257 to 258 | –
4 | CCc1ccc(-c2nc3c(c(C)nn3-c3ccccc3)c(-c3ccccc3C)c2C#N)cc1 [Compound 12, 6-(4-Ethylphenyl)-3-methyl-4-(2-methylphenyl)-1-phenyl-1H-pyrazolo[3,4-b]pyridine-5-carbonitrile] | – | 203 to 204 | –
5 | CCc1ccc(-c2nc3c(c(C)nn3-c3ccccc3)c(-c3ccccc3C(F)(F)F)c2C#N)cc1 [Compound 15, 6-(4-Ethylphenyl)-3-methyl-1-phenyl-4-[2-(trifluoromethyl)phenyl]-1H-pyrazolo[3,4-b]pyridine-5-carbonitrile] | – | 193 to 195 | –
6 | O=C1C(O)=C([C@H]2CC[C@H](c3ccc(Cl)cc3)CC2)C(=O)c2ccccc21 [Atovaquone] | 100 | – | % Survival (24 h) [1]: 78.96 ± 3.89%; % Survival (48 h) [1]: 39.89 ± 4.37%
7 | CCc1ccc(-c2nc3c(c(C)nn3-c3ccccc3)c(-c3ccccc3I)c2C#N)cc1 [Compound 8, 6-(4-Ethylphenyl)-4-(2-iodophenyl)-3-methyl-1-phenyl-1H-pyrazolo[3,4-b]pyridine-5-carbonitrile] | – | 205 to 207 | –
8 | CCc1ccc(-c2nc3c(c(C)nn3-c3ccccc3)c(-c3ccccc3Br)c2C#N)cc1 [Compound 9, 4-(2-Bromophenyl)-6-(4-ethylphenyl)-3-methyl-1-phenyl-1H-pyrazolo[3,4-b]pyridine-5-carbonitrile] | – | 208 to 209 | –
9 | C[C@H]1[C@H](OC(=O)CCC(=O)O)O[C@@H]2O[C@@]3(C)CC[C@H]4[C@H](C)CC[C@@H]1[C@@]24OO3 [Artesunate] | 100 | – | % Survival (24 h) [1]: 17.50 ± 3.68%; % Survival (48 h) [1]: 6.44 ± 0.51%
10 | Cc1nn(-c2ccccc2)c2nc(-c3ccc(C(F)(F)F)cc3)c(C#N)c(-c3ccccc3O)c12 [Compound 30, 4-(2-hydroxyphenyl)-3-methyl-1-phenyl-6-[4-(trifluoromethyl)phenyl]-1H-pyrazolo[3,4-b]pyridine-5-carbonitrile] | – | 254 to 256 | –
11 | CCc1ccc(-c2nc3c(c(C)nn3-c3ccccc3)c(-c3ccccc3F)c2C#N)cc1 [Compound 11, 6-(4-Ethylphenyl)-4-(2-fluorophenyl)-3-methyl-1-phenyl-1H-pyrazolo[3,4-b]pyridine-5-carbonitrile] | – | 197 to 199 | –
12 | Cc1nn(-c2ccccc2)c2nc(-c3ccc(Cl)cc3)c(C#N)c(-c3ccccc3O)c12 [Compound 32, 6-(4-chlorophenyl)-4-(2-hydroxyphenyl)-3-methyl-1-phenyl-1H-pyrazolo[3,4-b]pyridine-5-carbonitrile] | – | 281 to 282 | –
13 | Cc1nn(-c2ccccc2)c2nc(-c3ccc(C(C)(C)C)cc3)c(C#N)c(-c3ccccc3O)c12 [Compound 27, 6-(4-tert-butylphenyl)-4-(2-hydroxyphenyl)-3-methyl-1-phenyl-1H-pyrazolo[3,4-b]pyridine-5-carbonitrile] | 100 | – | killing profile [1]: moderate killing profile; EC50 [2]: > 25 µM
14 | CCc1ccc(-c2nc3c(c(C)nn3-c3ccccc3)c(-c3ccccc3C#N)c2C#N)cc1 [Compound 7, 4-(2-Cyanophenyl)-6-(4-ethylphenyl)-3-methyl-1-phenyl-1H-pyrazolo[3,4-b]pyridine-5-carbonitrile] | – | 201 to 203 | –
15 | CCc1ccc(-c2nc3c(c(C)nn3-c3ccccc3)c(-c3ccccc3OC)c2C#N)cc1 [Compound 16, 6-(4-Ethylphenyl)-4-(2-methoxyphenyl)-3-methyl-1-phenyl-1H-pyrazolo[3,4-b]pyridine-5-carbonitrile] | – | 196 to 198 | –
16 | Cc1nn(-c2ccccc2)c2nc(-c3ccc(F)cc3)c(C#N)c(-c3ccccc3O)c12 [Compound 31, 6-(4-fluorophenyl)-4-(2-hydroxyphenyl)-3-methyl-1-phenyl-1H-pyrazolo[3,4-b]pyridine-5-carbonitrile] | – | 234 to 236 | –
17 | Cc1nn(-c2ccccc2)c2nc(-c3ccc(C#N)cc3)c(C#N)c(-c3ccccc3O)c12 [Compound 34, 6-(4-cyanophenyl)-4-(2-hydroxyphenyl)-3-methyl-1-phenyl-1H-pyrazolo[3,4-b]pyridine-5-carbonitrile] | – | 165 to 166 | –
18 | CCN(CC)CCCC(C)Nc1ccnc2cc(Cl)ccc12 (stereo not drawn) [Chloroquine] | 100 | – | % Survival (24 h) [1]: 18.69 ± 7.34%; % Survival (48 h) [1]: 9.21 ± 2.08%
19 | Cc1nn(-c2ccccc2)c2nc(-c3ccc(I)cc3)c(C#N)c(-c3ccccc3O)c12 [Compound 33, 4-(2-hydroxyphenyl)-6-(4-iodophenyl)-3-methyl-1-phenyl-1H-pyrazolo[3,4-b]pyridine-5-carbonitrile] | – | 289 to 291 | –
20 | CCc1ccc(-c2nc3c(c(C)nn3-c3ccccc3)c(-c3ccccc3Cl)c2C#N)cc1 [Compound 10, 4-(2-Chlorophenyl)-6-(4-ethylphenyl)-3-methyl-1-phenyl-1H-pyrazolo[3,4-b]pyridine-5-carbonitrile] | 100 | – | killing profile [1]: slow killing profile; EC50 [2]: > 25 µM; potency against the liver stage of the parasite [3]: sub-micromolar potency; EC50 (HepG2-A16-CD81EGFP cells): > 50 µM
